This test addresses T1, TRIP13 (Homo sapiens, UniProt Q15645).
T1 construct: full length, 1-432 aa, N-GST-tagged
T1 sequence (Q15645 1-432): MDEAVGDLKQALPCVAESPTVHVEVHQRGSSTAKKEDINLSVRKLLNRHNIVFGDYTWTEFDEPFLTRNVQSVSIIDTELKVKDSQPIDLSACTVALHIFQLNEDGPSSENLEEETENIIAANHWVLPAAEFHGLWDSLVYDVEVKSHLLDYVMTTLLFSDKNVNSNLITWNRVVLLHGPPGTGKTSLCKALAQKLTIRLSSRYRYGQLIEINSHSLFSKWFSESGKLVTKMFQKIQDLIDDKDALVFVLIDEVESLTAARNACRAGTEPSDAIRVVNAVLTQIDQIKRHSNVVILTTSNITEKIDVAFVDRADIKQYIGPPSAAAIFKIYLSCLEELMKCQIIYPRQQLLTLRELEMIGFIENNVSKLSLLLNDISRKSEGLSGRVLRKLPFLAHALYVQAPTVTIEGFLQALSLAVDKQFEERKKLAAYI
Description: ADP-Glo ATPase dose-response ([…] TRIP13, […] ATP) with ADP counter-screen; also CETSA in HeLa cells. The test is classed as biochemical.

Consider `COc1cc2c(Oc3ccc4[nH]c(C)cc4c3F)ccnc2cc1OCC1(N)CC1` [anlotinib], for which the IC50 – broadly, the point on the concentration scale where inhibition reaches its midpoint – came to 5.5 ± 1 µM.

Values taken from PMC12224672, “Advancing the development of TRIP13 inhibitors: A high-throughput screening approach” (SLAS discovery : advancing life sciences R & D, 2025).
